In one test the target is T1, human CB2 receptor (Homo sapiens, UniProt P34972).
T1 construct: expressed in transfected cells; membranes
In words: [3H]-WIN-55,212-2 competition binding, CHO membranes.

The subject of test [1] is T2, CB1R.
T2 construct: expressed in transfected cells; host or cells: HEK-293T, transient transfection (PEI)
The experiment in a line: β-arrestin 2 recruitment (BRET) in HEK-293T cells. The format is cell-based, human. The procedure: (§1) HEK-293T cells were grown in DMEM medium (Gibco, Paisley, Scotland, United Kingdom) supplemented with 2 mM L-glutamine, 100 U/mL penicillin/streptomycin, MEM Non-Essential Amino Acids Solution (1/100) and 5% (v/v) heat inactivated Foetal Bovine Serum (FBS) (Invitrogen, Paisley, Scotland, United Kingdom). […] Cells were transiently transfected with the PEI (Polyethylenimine, Sigma, St. Louis, MO, United States) method as previously described ([Medrano et al., 2017]; [Navarro et al., 2018b]) and used for functional assays 48 h later (unless otherwise stated).
(§2) Arrestin recruitment was determined as previously described ([Medrano et al., 2017]; [Navarro et al., 2018b]). Briefly, BRET experiments were performed in HEK-293T cells 48 h after transfection with the cDNA corresponding to the CB2R-YFP or CB1R-YFP and 1 μg cDNA corresponding to β-arrestin 2-Rluc. Cells (20 μg protein) were distributed in 96-well microplates (Corning 3600, white plates with white bottom) and were incubated with CBG for 15 min and stimulated with the agonist for 10 min prior the addition of 5 μM coelenterazine H (Molecular Probes, Eugene, OR, United States). After 1 min of adding coelenterazine H, BRET between β-arrestin 2-Rluc and receptor-YFP was determined and quantified. The readings were collected using a Mithras LB 940 (Berthold Technologies, Bad Wildbad, Germany) that allows the integration of the signals detected in the short-wavelength filter at 485 nm and the long-wavelength filter at 530 nm. To quantify protein-RLuc expression luminescence readings were also performed 10 min of adding 5 μM coelenterazine H.

In test [2] the test system is T3, CB2R.
T3 construct: expressed in transfected cells; host or cells: HEK-293T, transient transfection (PEI)
In words: β-arrestin 2 recruitment (BRET) in HEK-293T cells. It counts as cell-based, human. How it is done:
as §1, §2
A general note: Recruitment of arrestin is a read-out of receptor activation apart from second messengers.

The subject of test [3] is T4, CB1R and CB2R (CB1–CB2 heteroreceptor complexes).
T4 construct: expressed in transfected cells; host or cells: HEK-293T, transient co-transfection (PEI)
In words: β-arrestin 2 recruitment (BRET) in HEK-293T cells co-expressing both receptors. It counts as cell-based, human. The procedure:
as §1
as §2, with “Cells (20 μg protein) were distributed in 96-well microplates (Corning 3600, white plates with white bottom) and were incubated with CBG for 15 min and stimulated with the agonist for 10 min prior the addition of 5 μM coelenterazine H (Molecular Probes, Eugene, OR, United States).” left out

Test [4] deals with T2, CB1R. The experiment in a line: Overall signalling profile (cAMP, MAPK, β-arrestin, DMR) in HEK-293T cells. It counts as cell-based, human. The following applies: HEK-293T cells expressing CB1R. The procedure: as §1
(§3) Signaling experiments have been performed as previously described ([Navarro et al., 2010], [2016], [2018b]; [Hinz et al., 2018]). […] Readings were performed after 15 min incubation at 25°C. […] Fluorescence at 665 nm was analyzed in a PHERAstar Flagship microplate reader equipped with an HTRF optical module (BMG Lab Technologies, Offenburg, Germany).
(§4) To determine ERK1/2 phosphorylation, 50,000 HEK-293T cells/well were plated in transparent Deltalab 96-well microplates and kept at the incubator for 24 h. […] 10 μL of each supernatant were placed in white ProxiPlate 384-well microplates and ERK 1/2 phosphorylation was determined using AlphaScreen®SureFire® kit (Perkin Elmer) following the instructions of the supplier and using an EnSpire® Multimode Plate Reader (PerkinElmer, Waltham, MA, United States). […]

The test system of test [5] is T3, CB2R. The test is described as above. The note with it: HEK-293T cells expressing CB2R. The format is cell-based, human. The procedure:
as §1, §3, §4

A further test has as its target TRPA1. The note with it: ref De Petrocellis et al., cited from earlier work.
Another test has as its system AEA cell uptake. Also on record: method as in De Petrocellis et al., 2011. The following applies: ref De Petrocellis et al., 2011; read-out: Ki, inhibitor of AEA cell uptake; cited from earlier work.
The target in another test is PPARγ. Also on record: method as in Granja et al., 2012; Nadal et al., 2017. The note with it: ref Granja et al., 2012; Nadal et al., 2017; cited from earlier work.
Test [6] relates to PPARγ transcriptional activity. Also on record: method as in Granja et al., 2012; Nadal et al., 2017. The note with it: high concentrations, 10–25 μM range; ref Granja et al., 2012; Nadal et al., 2017; cited from earlier work.

Like-named read-outs stand apart in the source and are kept apart here.

T1 sequence (P34972 whole entry): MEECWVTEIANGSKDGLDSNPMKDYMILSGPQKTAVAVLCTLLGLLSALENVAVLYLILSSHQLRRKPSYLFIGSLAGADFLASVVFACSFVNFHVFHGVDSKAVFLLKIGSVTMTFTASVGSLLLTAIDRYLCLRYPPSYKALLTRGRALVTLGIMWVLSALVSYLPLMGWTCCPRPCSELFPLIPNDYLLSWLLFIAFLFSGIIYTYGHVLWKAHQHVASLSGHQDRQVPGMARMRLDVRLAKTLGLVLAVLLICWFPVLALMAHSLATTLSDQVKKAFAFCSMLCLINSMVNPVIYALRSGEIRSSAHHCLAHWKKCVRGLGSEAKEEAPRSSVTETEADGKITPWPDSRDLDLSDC

For orientation: Ki means a dissociation constant, usually derived from enzyme kinetics or from competition with a known ligand. `CCCCCc1cc(O)c(C/C=C(\C)CCC=C(C)C)c(O)c1` [CBG, cannabigerol]: the Ki was 2.66 µM at human CB2 receptor (radioligand 3 nM [3H]-WIN-55,212-2, CHO membranes, read-out: CB2 – Ki); 2.7 µM at human CB2 receptor (radioligand [3H]-WIN-55,212-2, read-out: Ki, competition of [3H]-WIN-55,212-2 binding to CB2R); 11.3 µM with AEA cell uptake; 11.7 µM at PPARγ. Further, in the test on CB1R [1] (100 nM or 1 μM CBG, 100 nM AEA or ACEA, CB1R), the “Effect on agonist-induced β-arrestin recruitment” value is given as “unable to modify”. Besides, the β-arrestin recruitment entry is “small increase” in the test on CB1R [1] (CBG alone, 1 nM to 10 μM, CB1R-expressing cells); “noteworthy” in the test with CB2R [2] (CBG alone, 1 nM to 10 μM, CB2R-expressing cells); “negative cross-talk was still evident” in [3] (CBG alone, dose-effect, cells expressing CB1R and CB2R). Moreover, the “Effect on β-arrestin recruitment induced by agonists” value in the test on CB2R [2] (100 nM or 1 μM CBG, 100 nM AEA or JWH133, CB2R) was “did not affect”. In addition, the “Effect on agonist actions on β-arrestin recruitment” value in [3] (100 nM CBG pretreatment, cells co-expressing CB1R and CB2R) is recorded as “negligible”. For the same compound, in the test on CB1R [4], the “Pharmacological profile at CB1R” value is on record as “poor agonist of CB1R”. The “Pharmacological profile at CB2R” value in the test with CB2R [5] is listed as “partial agonist of the CB2R”. Also, the “EC50 values, transient receptor potential channels of ankyrin type-1” value at TRPA1 (2008) was “micromolar range”. In addition, the EC50 in the test on TRPA1 (2011, read-out: EC50, agonist/desensitizer of TRPA1) is 0.7 µM. Moreover, in [6], the “Effect on PPARγ transcriptional activity” value is given as “may enhance the PPARγ transcriptional activity”.
